Measurements as given in publication PMC11747885, “Potent inhibitors of the human RNA ligase Rlig1 highlights its role in RNA integrity maintenance under oxidative cellular stress” (Chemical Science, 2025).
Several values for one entry are separate records, joined by “and”; a condition that tells them apart may be missing. Equal entries are not always repeated. Where two headings read alike, the source gives them in different places.

Key:
[1] = molecular target: T1, Rlig1-AMP (Homo sapiens, UniProt Q8N999); experiment: FRET-based high-throughput screening of inhibitors for Rlig1-AMP; assay type: biochemical; conditions: HTS hits; for Raw data [w Enyzm]: with enzyme; for Raw data [w/o Enzym]: without enzyme
T1 construct: made in house; host or cells: E. coli BL21 (DE3), pET15b-Rlig1

[2] = tested on: other members of the PLK family; parameters: method as in MedChemExpress; conditions: ref MedChemExpress; cited from earlier work
[3] = tested on: Aurora A; parameters: method as in MedChemExpress; conditions: ref MedChemExpress; cited from earlier work
[4] = tested on: Aurora B; parameters: method as in MedChemExpress; conditions: ref MedChemExpress; cited from earlier work
[5] = tested on: KDR; parameters: method as in MedChemExpress; conditions: ref MedChemExpress; cited from earlier work
[6] = tested on: FLT-3; parameters: method as in MedChemExpress; conditions: ref MedChemExpress; cited from earlier work
[7] = molecular target: ETB receptor; parameters: method as in MedChemExpress; conditions: inhibition of ET-1 binding to human Girardi heart cells (ETB); ref MedChemExpress; cited from earlier work
[8] = molecular target: ETA receptors; parameters: method as in MedChemExpress; conditions: binding to ETA receptors in SK-N-MC cells; ref MedChemExpress; cited from earlier work
[9] = tested on: rat brain PKC; parameters: method as in MedChemExpress; conditions: ref MedChemExpress; cited from earlier work
[10] = tested on: PKC-α; parameters: method as in MedChemExpress; conditions: ref MedChemExpress; cited from earlier work
[11] = tested on: PKC-βI; parameters: method as in MedChemExpress; conditions: ref MedChemExpress; cited from earlier work
[12] = tested on: PKC-βII; parameters: method as in MedChemExpress; conditions: ref MedChemExpress; cited from earlier work
[13] = tested on: PKC-γ; parameters: method as in MedChemExpress; conditions: ref MedChemExpress; cited from earlier work
[14] = tested on: PKC-ε; parameters: method as in MedChemExpress; conditions: ref MedChemExpress; cited from earlier work
[15] = tested on: Pim-1; parameters: method as in MedChemExpress; conditions: ref MedChemExpress; cited from earlier work
[16] = tested on: Pim-2; parameters: method as in MedChemExpress; conditions: ref MedChemExpress; cited from earlier work
[17] = tested on: Pim-3; parameters: method as in MedChemExpress; conditions: ref MedChemExpress; cited from earlier work
[18] = molecular target: human DNA topoisomerase I; parameters: method as in MedChemExpress; conditions: ref MedChemExpress; cited from earlier work
[19] = tested on: NLRP3 inflammasome; parameters: method as in MedChemExpress; conditions: ref MedChemExpress; cited from earlier work
[20] = molecular target: wild-type h5-HT1B; parameters: method as in MedChemExpress; conditions: ref MedChemExpress; cited from earlier work
[21] = molecular target: wild-type h5-HT1D; parameters: method as in MedChemExpress; conditions: ref MedChemExpress; cited from earlier work
[22] = DMSO; ref MedChemExpress; cited from earlier work
[23] = tested on: JNK1; parameters: method as in MedChemExpress; conditions: ref MedChemExpress; cited from earlier work
[24] = tested on: JNK2; parameters: method as in MedChemExpress; conditions: ref MedChemExpress; cited from earlier work
[25] = tested on: JNK3; parameters: method as in MedChemExpress; conditions: ref MedChemExpress; cited from earlier work
[26] = tested on: CXXC5-DVL; parameters: method as in MedChemExpress; conditions: ref MedChemExpress; cited from earlier work
[27] = tested on: GSK3β; parameters: method as in MedChemExpress; conditions: ref MedChemExpress; cited from earlier work
[28] = DMSO; ref MedChemExpress; cited from earlier work; remark: listed apart in the source
[29] = tested on: MAGL; parameters: method as in MedChemExpress; conditions: ref MedChemExpress; cited from earlier work
[30] = tested on: human p53 and CREB binding protein association; parameters: method as in MedChemExpress; conditions: at 50 μM; ref MedChemExpress; cited from earlier work
[31] = molecular target: CDK7; parameters: method as in MedChemExpress; conditions: ref MedChemExpress; cited from earlier work
[32] = tested on: DNA synthesis; parameters: method as in MedChemExpress; conditions: ref MedChemExpress; cited from earlier work
[33] = tested on: RNA synthesis; parameters: method as in MedChemExpress; conditions: ref MedChemExpress; cited from earlier work
[34] = tested on: Syk; parameters: method as in MedChemExpress; conditions: ref MedChemExpress; cited from earlier work
[35] = tested on: PI3Kα; parameters: method as in MedChemExpress; conditions: ref MedChemExpress; cited from earlier work
[36] = tested on: HIV-1IIIB; parameters: method as in MedChemExpress; conditions: ref MedChemExpress; cited from earlier work
[37] = tested on: HIV-1(74V); parameters: method as in MedChemExpress; conditions: ref MedChemExpress; cited from earlier work
[38] = tested on: HIV-1KM018; parameters: method as in MedChemExpress; conditions: ref MedChemExpress; cited from earlier work
[39] = tested on: TMEM16A chloride channel; parameters: method as in MedChemExpress; conditions: ref MedChemExpress; cited from earlier work
[40] = tested on: SirT2; parameters: method as in MedChemExpress; conditions: ref MedChemExpress; cited from earlier work
[41] = tested on: SirT5; parameters: method as in MedChemExpress; conditions: ref MedChemExpress; cited from earlier work
[42] = molecular target: DNA topoisomerase II; parameters: method as in MedChemExpress; conditions: ref MedChemExpress; cited from earlier work
[43] = tested on: hERG channel; parameters: method as in MedChemExpress; conditions: ref MedChemExpress; cited from earlier work
[44] = difference of raw data without and with enzyme
[45] = difference of raw data w/o and w enzyme

T1 sequence (Q8N999 whole entry): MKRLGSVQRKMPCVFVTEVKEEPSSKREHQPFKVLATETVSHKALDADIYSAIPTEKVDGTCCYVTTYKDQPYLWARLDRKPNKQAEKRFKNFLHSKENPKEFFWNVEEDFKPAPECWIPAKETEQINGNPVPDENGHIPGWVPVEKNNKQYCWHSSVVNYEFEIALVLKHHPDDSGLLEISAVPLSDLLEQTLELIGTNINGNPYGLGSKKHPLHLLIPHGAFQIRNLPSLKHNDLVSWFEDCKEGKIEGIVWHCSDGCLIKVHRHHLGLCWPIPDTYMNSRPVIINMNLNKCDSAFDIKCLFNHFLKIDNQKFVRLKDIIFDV

| Molecule | 1-D Distance.npi ([1]; MedChemExpress library) | 1-D Distance [1, 44] | Raw data [w Enyzm] [1] | Raw data [w/o Enzym] [1] | other results |
| --- | --- | --- | --- | --- | --- |
| COc1ccc2[nH]c(O)c(C=c3ccc4c(c3)N=NC=4/C=C/c3ccc(N4CCN(C)CC4)nc3)c2c1.Cl.Cl [(1E)-CFI-400437 (dihydrochloride)] | 102.026 | 187 | 4069 | 3882 | IC50 [2]: > 10000 nM; IC50 [3]: 370 nM; IC50 [4]: 210 nM; IC50 [5]: 480 nM; IC50 [6]: 180 nM |
| CCCC[C@@H](NC(=O)[C@@H](Cc1cn(C(=O)OC)c2ccccc12)NC(=O)[C@H](CC(C)(C)C)NC(=O)N1[C@H](C)CCC[C@@H]1C)C(=O)[O-].[Na+] [BQ-788] | 75.2571 | 1704 | 8619 | 10323 | IC50 [7]: 1.2 nM; IC50 [8]: 1300 nM |
| CC(=O)O.Cn1cc(C2=C(c3cn(CCCN)c4ccccc34)C(=O)NC2=O)c2ccccc21 [Bisindolylmaleimide VIII (acetate)] | 70.0569 | 1909 | 2831 | 4740 | IC50 [9]: 158 nM; IC50 [10]: 53 nM; IC50 [11]: 195 nM; IC50 [12]: 163 nM; IC50 [13]: 213 nM; IC50 [14]: 175 nM |
| CN1CCCN(C(=O)c2cccc(-c3ccc(/C=C4/C(=O)Nc5ccc(Cl)cc54)o3)c2)CC1.Cl [CX-6258 (hydrochloride)] | 75.5915 | 1601 | […] | 6590 | IC50 [15]: […]; IC50 [16]: 25 nM; IC50 [17]: 16 nM |
| COc1cccc2c1C(=O)c1c(O)c3c(c(O)c1C2=O)C[C@@](O)(C(=O)CO)C[C@@H]3O[C@H]1C[C@H](N)[C@H](O)[C@H](C)O1.Cl [Doxorubicin (hydrochloride)] | 103.376 | 134 | 1247 |  | IC50 [18]: 800 nM |
| CC(C)n1ccc(S(=O)(=O)NC(=O)Nc2c3c(cc4c2CCC4)CCC3)n1 [Emlenoflast (sodium)] | 80.6711 | 1207 | 9218 | 10425 | IC50 [19]: < 100 nM |
| COc1ccc(NC(=O)c2ccc(-c3ccncc3)c(C)c2)cc1N1CCN(C)CC1 [GR 125743] |  |  | 8833 | 10262 | 1-D Distance [1, 45]: 1429; pKi [20]: 8.85; pKi [21]: 8.31; solubility [22]: 100 mg/mL and 240.08 mM |
| O=C1Nc2ccccc2/C1=C1/Nc2ccccc2/C1=N\O [Indirubin-3′-oxime] | 72.577 | 1766 | 1847 | 3613 | IC50 [23]: 800 nM; IC50 [24]: 1400 nM; IC50 [25]: 1000 nM |
| CON=C1C(=C2C(=O)Nc3cc(Cl)c(Cl)cc32)Nc2ccccc21 [KY19382] | 101.229 | 138 | 6054 | 6192 | IC50 [26]: 19 nM; IC50 [27]: 10 nM; solubility [28]: 5 mg/mL and 13.88 mM |
| CC(C)c1ccc(C(=O)C2CCN(C(=O)c3cc(O)ccc3F)CC2)cc1 [MAGL-IN-1] | 70.8371 | 1819 | 9200 | 11019 | IC50 [29]: 80 nM |
| CC(=O)n1c2c(c3ccccc31)CCCC2=O [MS7972] |  |  | 8943 | 10149 | 1-D Distance [1, 45]: 1206; 1-D Distance.npi ([1]; normalized value (npi)): 81.4632; block of BRD interaction [30]: MS7972 is a small molecule that blocks human p53 and CREB binding protein association. MS7972 can almost completely block this BRD interaction at 50 μM[1]. |
| CN(C)C/C=C/C(=O)Nc1ccc(C(=O)N[C@@]2(C)CCC[C@@H](Nc3ncc(Cl)c(-c4c[nH]c5ccccc45)n3)C2)nc1 [Mevociclib] | 95.3899 | 561 | 5749 | 5188 | Ki [31]: 17.4 nM |
| CCc1c2c(nc3ccc(O)cc13)-c1cc3c(c(=O)n1C2)COC(=O)[C@]3(O)CC [SN-38] | 72.669 | 1812 | 9411 | 11223 | IC50 [32]: 77 nM; IC50 [33]: 1300 nM; solubility [28]: 50 mg/mL and 127.42 mM |
| Cc1nn(-c2ccnc(Nc3ccc(-c4csc5c(=O)cc(N6CCOCC6)oc45)cc3)n2)cc1CN1CCC1 [SRX3207] | 89.3143 | 966 | 7329 | 6363 | IC50 [34]: 10.7 nM; IC50 [35]: 861 nM; solubility [28]: 5 mg/mL and 9.00 mM |
| O=C(O)[C@H]1O[C@@H](Oc2cc3oc(-c4ccc(O)cc4)cc(=O)c3c(O)c2O)[C@H](O)[C@@H](O)[C@@H]1O [Scutellarin] |  | 1804 | 9318 | 11122 | EC50 [36]: 26000 nM; EC50 [37]: 253000 nM; EC50 [38]: 136000 nM; solubility [28]: 100 mg/mL and 216.28 mM |
| CC(C)=CC[C@@H](O)C1=CC(=O)c2c(O)ccc(O)c2C1=O [Shikonin] |  | 1574 | 3611 |  | IC50 [39]: 6500 nM |
| Cc1ccc(C(=O)Nc2ccc(S(=O)(=O)[O-])c3cc(S(=O)(=O)[O-])cc(S(=O)(=O)[O-])c23)cc1NC(=O)c1cccc(NC(=O)Nc2cccc(C(=O)Nc3cc(C(=O)Nc4ccc(S(=O)(=O)[O-])c5cc(S(=O)(=O)[O-])cc(S(=O)(=O)[O-])c45)ccc3C)c2)c1.[Na+].[Na+].[Na+].[Na+].[Na+].[Na+] [Suramin (sodium salt)] | 85.8095 | 1150 | 13348 | 14498 | IC50 [40]: 1150 nM; IC50 [41]: 22000 nM; IC50 [42]: 5000 nM |
| Tannic acid | 92.4189 | 691 | 13343 | 14034 | IC50 [43]: 3400 nM |
